Test system: HeLa cells
Assay: Doxorubicin release from nanogels in cell media, live/dead cell assay
Assay type: cell-based
Details: after addition of glutathione (nanogels) or free Dox (control wells); control 93%; free Dox amount 6-7 times larger
Method: Doxorubicin release from nanogels in cell media. Using standard cell culture techniques, 5×10^4 HeLa cells were added to each well of a 24-well plate and cultured in complete DMEM for 24 h to permit cell attachment to the surface. After this time period, Dox-loaded nanogel (16%, 1.5 mg) was added to four wells (for each nanogel sample), leaving 12 wells with no gel to serve at control. After another 24 hours (48 hours total), the media was removed from 10 of the wells (6 samples, 4 controls) and a live/dead cell assay was performed to measure the toxicity of the gel before addition of the reducing agent. After performing this analysis, glutathione (0.2 mg) dissolved in sterile PBS, was added to each well containing the nanogels and 6 of the control wells. Additionally, free Dox (1 mg) was added to 3 of the control wells. […]
To confirm the non-limiting exemplary concept that Dox-loaded nanogels will be degraded upon the addition of glutathione in cellular media and in turn, the released Dox molecules will kill cancer cells, HeLa cancer cells were incubated with and without 16.4% Dox-loaded nanogels. The cell viability was measured at the 48-hour time point using live/dead staining to estimate the cytotoxicity of the Dox-loaded nanogel before addition of the reducing agent. […]

COc1cccc2c1C(=O)c1c(O)c3c(c(O)c1C2=O)C[C@@](O)(C(=O)CO)C[C@@H]3O[C@H]1C[C@H](N)[C@H](O)[C@H](C)O1.Cl [free Dox, doxorubicin hydrochloride]
cell viability of HeLa cells after Dox release: 7%
